Source: publication PMC12452389, “Arginine-Derived Cationic Surfactants Containing Phenylalanine and Tryptophan: Evaluation of Antifungal Activity, Biofilm Eradication, Cytotoxicity, and Ecotoxicity” (Journal of Xenobiotics, 2025)
In brackets after ≈: the same amount, converted by molar mass. Where two headings read alike, the source gives them in different places. Peptide text beside a SMILES is read from it. * marks the point of attachment. Lauroyl = CCCCCCCCCCCC(=O)*

Assays:
[1] = tested on: erythrocytes; assay: Hemolytic activity assay; assay type: cell-based; conditions: rabbit erythrocytes
Experimental: Fresh rabbit blood was obtained from the Animal Facility of the CID-CSIC (Research and Development Center, Spanish National Research Council, Barcelona, Spain). Sample collection was conducted in strict compliance with the bioethical guidelines established under Spanish legislation. Erythrocytes were isolated by centrifugation (3000 rpm/10 min). The supernatant was discarded, and the erythrocytes were washed three times with PBS (phosphate-buffered saline, pH 7.4) and then resuspended in PBS at a concentration of 8 × 10^9 cells/mL. Subsequently, varying volumes of a concentrated surfactant solution were added to Eppendorf tubes containing 25 μL of erythrocyte suspension. PBS was then added to bring the total volume to 1 mL. The samples were gently shaken for 10 min at room temperature and centrifuged at 10,000 rpm for 5 min. Hemolysis was evaluated by measuring the absorbance of the supernatant at 540 nm and comparing it to that of a 100% hemolysis control (erythrocytes treated with distilled water). The HC50, defined as the surfactant concentration that induces 50% hemolysis, was determined from the concentration–response curves: % hemolysis= Abstest compound/AbsBasal haemolytic activity ×100

[2] = set-up: method as in PMID 36559096; conditions: CO2 Headspace test, pass level 60%; cited from earlier work
[3] = tested on: C. albicans biofilms; assay: Eradication of mature biofilm, MTT method; assay type: cell-based, Candida albicans; conditions: highest concentration tested
Experimental: Candida strains were cultured in SBA at 30 °C for 24 h. Yeast cells were then suspended in RPMI 1640 broth to a final concentration of 1.5 × 10^7 CFU/mL. For mature biofilm formation, 200 μL of these suspensions was transferred to each well of a 48-well microplate and incubated at 30 °C for 24 h. After incubation, the plate was washed with phosphate-buffered saline (PBS) to remove non-adherent cells. Then, surfactant solutions at various concentrations (200 μL), prepared in RPMI 1640, were added to the wells containing the mature biofilms. Plates were incubated again at 30 °C for 24 h. Following this treatment, the RPMI medium was removed, and wells were washed twice with PBS. To assess biofilm viability, 200 μL of MTT solution (3-(4,5-dimethylthiazol-2-yl)-2,5-diphenyltetrazolium bromide) were added to each well, and plates were incubated for 4 h. After incubation, the MTT solution was removed, and 200 μL of dimethyl sulfoxide (DMSO) were added to solubilize the formazan crystals. Absorbance at 540 nm (A540) was then measured using a microplate reader. Controls without the amino acid-based surfactants were included. All experiments were made in quadruplicate, and the results were averaged to ensure accuracy and reproducibility.
In this section, we have tested the ability of these cationic surfactants to eradicate mature fungal biofilms of C. albicans and C. tropicalis. Preformed biofilms of these two strains on 48-well plates were exposed to various concentrations of the synthesized surfactants, and the biofilm was not removed after the treatment was quantified using the MTT method (3-[4,5-dimethylthiazol-2-yl]-2,5 diphenyl tetrazolium bromide) (Figure 4). This method detects viable and metabolically active cells within the biofilm by measuring the reduction in MTT to formazan by active mitochondrial enzymes.

[4] = set-up: method as in PMID 36559096; conditions: conductivity values; cited from earlier work
[5] = Surface tension, pendant drop tensiometer (cmc, γc); assay type: physicochemical; conditions: for cmc: from surface tension
Experimental: Surface tension was measured using a custom-built pendant drop tensiometer, as described in detail in reference. Briefly, a droplet of surfactant solution is formed at the tip of a straight-cut Teflon tube. The image of the droplet is captured using a webcam, and its shape is analyzed by fitting the droplet profile to the Laplace–Young equation [14], To minimize evaporation, all measurements were conducted in a saturated humid atmosphere. The use of this technique is especially well-suited for cationic surfactants because it helps to mitigate complications related to surface adsorption. Critical micelle concentration values (cmc) were determined by finding the intersection of the linear fits before and after the break in the curves.

[6] = tested on: Candida rugosa ATCC 10571; assay: MIC broth microdilution; assay type: cell-based; conditions: C. rugosa; for MIC: Diutina rugosa, ATCC10571, read-out: MIC
Experimental: (§1) The antimicrobial activity of these compounds was assessed against selected yeast and bacterial strains: Candida albicans ATCC 90028 (CA9), Candida rugosa ATCC 10571 (CR), Candida glabrata ATCC 66032 (CG), Candida parapsilosis ATCC 22019 (CP), Candida tropicalis ATCC 7349 (CT), Candida auris ATCC 21092 (CA), and Cyberlindnera jadinii ATCC 60459. Frozen yeast stocks were plated on Sabouraud agar (SBA) and incubated at 30 °C for 24 h. Three to four colonies from each strain were then suspended in RPMI 1640 (Roswell Park Memorial Institute medium, Sigma- Aldrich, Merck, Darmstadt, Germany) to prepare bacterial dispersions of ~1.5 × 10^6 CFU/mL.
(§2) A broth microdilution assay was used to calculate MIC values. Twofold serially diluted compounds in RPMI 1640 medium (from 256 to 2 μg/mL), were dispensed (100 μL per well) into a 96-well plate. Then, 100 μL of a yeast starter culture was added to each well to reach a final inoculum of 7.5 × 10^5 CFU/mL. Wells containing only nutrient broth without the tested surfactant served as growth controls. Microbial growth was assessed by turbidity, which reflects increases in biomass and cell count. […] To confirm the obtained MICs, 20 μL of 0.015% (w/v) resazurin was dispensed to each well and incubated for 3 h at 30 °C. Metabolic activity was evidenced by a color change from blue to pink, thereby confirming the MIC value.

[7] = tested on: Candida albicans ATCC 90028; assay: MIC broth microdilution; assay type: cell-based; conditions: C. albicans; for MIC: Candida albicans, ATCC90028, read-out: MIC
Experimental: as §1, §2

[8] = tested on: Candida auris ATCC 21092; assay: MIC broth microdilution; assay type: cell-based; conditions: C. auris; for MIC: Candidozyma auris, ATCC21092, read-out: MIC
Experimental: as §1, §2

[9] = tested on: Candida tropicalis ATCC 7349; assay: MIC broth microdilution; assay type: cell-based; conditions: C. tropicalis; for MIC: Candida tropicalis, ATCC7349, read-out: MIC
Experimental: as §1, §2

[10] = tested on: Candida parapsilosis ATCC 22019; assay: MIC broth microdilution; assay type: cell-based; conditions: C. parapsilosis; for MIC: Lodderomyces parapsilosis, ATCC22019, read-out: MIC
Experimental: as §1, §2

[11] = tested on: Cyberlindnera jadinii ATCC 60459 (C. jardinii); assay: MIC broth microdilution; assay type: cell-based; conditions: for Selectivity Index (HC50/MIC): C. jardini; for MIC: Williopsis jadinii
Experimental: as §1, §2

[12] = tested on: Candida glabrata ATCC 66032; assay: MIC broth microdilution; assay type: cell-based; conditions: for MIC: Nakaseomyces glabratus, read-out: MIC
Experimental: as §1, §2

[13] = tested on: S. aureus SH1000; set-up: method as in PMID 19889790; conditions: cited from earlier work
[14] = tested on: S. aureus SH1000; set-up: method as in PMID 19889790; conditions: cited from earlier work; remark: listed apart in the source
[15] = tested on: Daphnia magna; assay: Acute toxicity, immobilization test; assay type: in vivo
Experimental: Aquatic toxicity evaluation was performed using Daphnia magna following established protocols. This bioassay method employs laboratory-cultured freshwater microcrustaceans to evaluate surfactant toxicity in aquatic environments. Test organisms were utilized during their initial 24 h life stage to ensure consistency. The endpoint measurement focused on mobility impairment, specifically the loss of swimming capability after gentle stimulation lasting 15 s. Testing conditions included controlled water chemistry parameters: pH maintained at 8.0, calcium-to-magnesium ratio of 4:1, and total hardness of 250 mg/L as CaCO3. All experiments were conducted under dark conditions at 20 °C. The experimental design incorporated ten test concentrations for each surfactant compound, distributed in geometric progression. Each concentration level included 20 Daphnia specimens distributed across four replicate groups of five organisms each. Mobility assessment occurred at 48 h post-exposure, with immobilization percentages plotted against concentration using probability–logarithmic scaling.

[16] = tested on: Vibrio fischeri; assay: Luminescence reduction test; assay type: cell-based; conditions: Aliivibrio fischeri, 0.25 h; Vibrio fischeri bioluminescence, 15 min of exposure; 95% confidence intervals in parentheses
Experimental: Ecotoxicological assessment of cationic surfactants was conducted using the Vibrio fischeri luminescent bioassay. This method relies on the measurement of decreased bioluminescent output from marine bacteria following contact with potentially toxic substances. Regression analysis was used to determine the concentration of the compound that caused a 50% reduction (EC50) in the amount of light emitted by the bacteria. The stated toxicity statistics given are based on the bacteria being exposed to the ionic liquid solution for 15 min at 15 °C.

[17] = ATCC66032, 24 h, C. glabrata, RPMI 1640, 24 h, 30 °C
[18] = ATCC66032, C. glabrata, value in parentheses
[19] = ATCC60459, C. jardinii, RPMI 1640, 24 h, 30 °C, read-out: MIC
[20] = ATCC60459, C. jardinii, value in parentheses, read-out: MIC

Molecule | MIC ([6]; RPMI 1640, 24 h, 30 °C) [µg/mL] | MIC ([6]; value in parentheses) [µM] | MIC ([7]; RPMI 1640, 24 h, 30 °C) [µg/mL] | MIC ([7]; value in parentheses) [µM] | MIC ([8]; RPMI 1640, 24 h, 30 °C) [µg/mL] | MIC ([8]; value in parentheses) [µM] | MIC ([9]; RPMI 1640, 24 h, 30 °C) [µg/mL] | MIC ([9]; value in parentheses) [µM] | MIC ([10]; RPMI 1640, 24 h, 30 °C) [µg/mL] | MIC ([10]; value in parentheses) [µM] | MIC [12, 17] [µg/mL] | MIC [12, 18] [µM] | MBEC [13] [µg/mL] | MIC [14] [µg/mL] | further results
CCCCCCCCCCCC(=O)NC(Cc1c[nH]c2ccccc12)C(=O)NC(CCCNC(=N)N)C(=O)OC (stereo not drawn) [C12TAM] (Lauroyl-Trp-Arg-OMe; configuration not given here) | 8 | 13 | 32 | 54 | 16 | 27 | 16 | 27 | 16 | 27 | 16 | 27 |  |  | HC50 ([1]; 10 min, room temperature): 24 ± 0.8 µg/mL; HC50 ([1]; value in parentheses): 40 ± 1.6 µM; biodegradation [2]: over 60%; reduction of the metabolic activity of the biofilm [3]: less than 65%; cmc Cond [4]: 0.5 mM; γc (surface tension at the cmc) [5]: 32.1 ± 2.3 mNm^−1; cmc [5]: 0.65 mM; Selectivity Index (HC50/MIC) ([6]; Table S1): 3; Selectivity Index (HC50/MIC) ([7]; Table S1): 0.7; Selectivity Index (HC50/MIC) ([8]; Table S1): 1.4; Selectivity Index (HC50/MIC) ([9]; Table S1): 1.4; Selectivity Index (HC50/MIC) ([10]; Table S1): 1.4; Selectivity Index (HC50/MIC) ([11]; Table S1): 0.7; MIC ([11]; ATCC60459): 54 µM; MIC ([11]; ATCC60459, 24 h): 32 µg/mL; Selectivity Index (HC50/MIC) ([12]; C. glabrata, Table S1): 1.4
[H]/N=C(\N/C(=N/[H])NCCCCCCNC(=N)NC(=N)Nc1ccc(Cl)cc1)Nc1ccc(Cl)cc1 [chlorhexidine] |  |  |  |  |  |  |  |  |  |  |  |  | > 256 | 1 (≈ 1.98 µM) | 
CCCCCCCCCCCCCCCC[N+](C)(C)C.[Br-] [CTAB] |  |  |  |  |  |  |  |  |  |  |  |  | > 256 | 2 | 
CCCCCCCCCCCCCCNC(=O)C(CCCNC(=N)N)NC(=O)C(N)Cc1c[nH]c2ccccc12 (stereo not shown) [TANHC14] | 4 | 7 | 16 | 25 | 16 | 25 | 4 | 7 | 16 | 25 | 8 | 14 |  |  | EC50 ([15]; Daphnia magna, 48 h): 0.85 µg/mL (≈ 1.53 µM); HC50 ([1]; 10 min, room temperature): 16 ± 0.18 µg/mL; HC50 ([1]; value in parentheses): 26 ± 0.3 µM; cmc Cond [4]: 0.3 mM; γc (surface tension at the cmc) [5]: 32.8 ± 1.2 mNm^−1; cmc [5]: 0.7 mM; EC50 [16]: 2.6 µg/mL (≈ 4.68 µM); Selectivity Index (HC50/MIC) ([6]; Table S2): 3.7; Selectivity Index (HC50/MIC) ([7]; Table S2): 1.1; Selectivity Index (HC50/MIC) ([8]; Table S2): 1.1; Selectivity Index (HC50/MIC) ([9]; Table S2): 3.7; Selectivity Index (HC50/MIC) ([10]; Table S2): 1.1; Selectivity Index (HC50/MIC) ([11]; Table S2): 1.9; MIC [11, 19]: 8 µg/mL; MIC [11, 20]: 14 µM; Selectivity Index (HC50/MIC) ([12]; C. glabrata, Table S2): 1.9
O=C(O)c1cn(C2CC2)c2cc(N3CCNCC3)c(F)cc2c1=O [ciprofloxacin] |  |  |  |  |  |  |  |  |  |  |  |  | > 256 | 4 (≈ 12.1 µM) | 
CN(C)[C@@H]1C(O)=C(C(N)=O)C(=O)[C@@]2(O)C(O)=C3C(=O)c4c(O)cccc4[C@@](C)(O)[C@H]3C[C@@H]12 [tetracycline] |  |  |  |  |  |  |  |  |  |  |  |  | > 256 | 0.5 (≈ 1.13 µM) | 
CCCCCCCCNC(=O)C(CCCNC(=N)N)NC(=O)C(N)Cc1ccccc1 (stereo not shown) [PANHC8] | > 256 | > 512 | > 256 | > 512 | > 256 | > 512 | 256 | 512 | 256 | 512 | 256 | 512 |  |  | MIC [11, 19]: > 256 µg/mL; MIC [11, 20]: > 512 µM
dodecyl dimethyl ammonium bromide [DDAB, reference compound] |  |  |  |  |  |  |  |  |  |  |  |  |  |  | EC50 ([15]; Daphnia magna immobilization, 48 h of exposure, 95% confidence intervals in parentheses): 0.15 (0.14–0.17) μg/mL
